One data set is described as follows: physchem. The following applies: PBS buffer with 1% dimethyl sulfoxide, pH 7.4.
Another data set in a line: in vitro. The following applies: Sprague-Dawley, rat, liver microsomes.

Data on 1 compound can be found in ChEMBL document CHEMBL4725415, “First Structure-Activity Relationship Study of Potent BLT2 Agonists as Potential Wound-Healing Promoters” (J Med Chem, 2020).

Each structure is given as a SMILES string. ≈ marks a conversion by molar mass, not a printed value.

On to `CCCCC(=O)N(Cc1ccc(-c2ccccc2C(=O)O)cc1)c1ccccc1`, for which the concentration in solution in the data set “physchem” (solubility) was 250 µM (≈ 96.9 µg/mL). For the same compound, the fraction remaining at 1 h, 1000 µM in the data set “in vitro” is 66%.
